Test system: mitochondria in living cells
Assay: evaluation of cell function (phototoxic property) with confocal fluorescence microscope system
Format: cell-based
Description: The following describes an example of the evaluation of cell function according to the present invention, performed with the confocal fluorescence microscope system of the First Embodiment.
RH123, used as a fluorescent dye, was applied to the mitochondria in living cells to prepare a specimen. The specimen was two-dimensionally scanned by irradiating an argon laser (488 nm) emitted in a predetermined intensity from the excitation light source 11, so as to obtain a fluorescence image of one frame.
FIG. 8(A) is the actual first fluorescence image obtained. Predetermined positions of the mitochondria (stained area) and the cellular cytoplasm (reference point) were specified by rectangular shaped frames, and a mean value of brightness values of the pixels in each of these specific areas was determined. These mean values were used as the brightness value of the mitochondria, and the brightness value of the cellular cytoplasm, respectively.
This procedure of obtaining the fluorescence image was repeated under the same conditions, and the brightness values of the mitochondria and the cellular cytoplasm were measured. FIG. 8(B) is the actual 50th fluorescence image, and FIG. 8(C) is the actual 150th fluorescence image obtained. It can be seen from FIG. 8 that the fluorescence image indeed undergoes changes as described in the First Embodiment with reference to FIG. 2.

Substance: Rhodamin 123 [RH123]
- frame number in which the brightness value of the cellular cytoplasm has the peak (functional depression of the mitochondria complete) (argon laser (488 nm) of a predetermined intensity, repeated imaging, FIG. 9(A)): 50
- frame number in which the brightness value of the cellular cytoplasm has the peak (laser beam having a weaker intensity than in FIG. 9(A), otherwise same conditions, FIG. 9(B)): 70
